Consider three compounds from US5821363A, “Antineoplastic use and pharmaceutical compositions containing them” (priority 1996, dated 1998).

Assay [1] relates to L1210 mouse leukemia carcinoma cells. The assay is described as follows: cytotoxicity / inhibition of cell proliferation in L1210 leukemia cells. The class given is cell-based.
Assay [2] concerns A2780 human ovarian carcinoma. The assay is described as follows: cytotoxicity in A2780 human ovarian carcinoma cells. The class given is cell-based.
In another assay the test system is KB-3-1. The assay is described as follows: killing of drug sensitive (non-MDR) KB-3-1 cells. It counts as cell-based. As to conditions: Homo sapiens.
The test system of another assay is KB-V1. The assay is described as follows: killing of multidrug resistant KB-V1 cells. It counts as cell-based. The conditions noted are these: for IC50: Homo sapiens.
The subject of another assay is tubulin. As to conditions: 20° C.; compared with taxol.

In brackets after ≈: the same amount, converted by molar mass. Where two headings read alike, the source gives them in different places.

Regarding `CC(=O)O[C@@]12CO[C@@H]1C[C@H](O)[C@@]1(C)C(=O)[C@H](O)C3=C(C)[C@@H](OC(=O)[C@H](O)[C@@H](NC(=O)OC(C)(C)C)c4ccccc4)C[C@@](O)([C@@H](OC(=O)c4ccccc4)[C@H]21)C3(C)C` [taxotere, reference compound], the IC50 is 0.004 µg/mL (≈ 4.95 nM) in assay [1] (L1210 leukemia, Table I, 50% inhibition of cell proliferation vs untreated control, read-out: L1210 (IC50 μg/ml)); 0.001 to 0.0016 µg/mL (≈ 1.24 to 1.98 nM) in assay [2] (A2780 human ovarian carcinoma, Table II, read-out: A2780 (IC50 μg/ml)); 0.25 nM in the assay with KB-3-1 (KB-3-1 drug sensitive cells, Table III, read-out: KB-3-1 (IC50; nM)); 1700 nM in the assay on KB-V1 (KB-V1 multidrug resistant cells, Table III, read-out: KB-V1 (IC50; nM)). In addition, the “Ratio: KBV-1/KB-3-1” value in the assay with KB-V1 (ratio of IC50 KB-V1 to IC50 KB-3-1) is 7,570. The “average ratio (IC50 KB-V1/IC50 KB-3-1)” value in the assay on KB-V1 (taxol and taxotere, average) is recorded as 7,570.
Regarding `CC(=O)O[C@H]1C(=O)[C@@]2(C)[C@H]([C@H](OC(=O)c3ccccc3)[C@]3(O)C[C@H](OC(=O)[C@H](O)[C@@H](NC(=O)c4ccccc4)c4ccccc4)C(C)=C1C3(C)C)[C@]1(OC(C)=O)CO[C@@H]1C[C@@H]2O` [taxol, reference compound], the IC90 in assay [1] (L1210, read-out: IC90 (90% growth inhibitory concentration)) was 18 ng/mL (≈ 21.1 nM). The IC50 in assay [1] (L1210, read-out: L1210 (IC50 μg/ml)) is 0.017 µg/mL (≈ 19.9 nM); in assay [2] (Homo sapiens, A2780, read-out: A2780 (IC50 μg/ml)) it was 0.002 to 0.003 µg/mL (≈ 2.34 to 3.51 nM); with KB-3-1 (KB 3-1, read-out: KB-3-1 (IC50; nM)), 1.3 nM; in the assay with KB-V1 (KB-V1, read-out: KB-V1 (IC50; nM)), 15000 nM. In the assay with KB-V1 (human, kb-v1 vs kb-3-1 cells), the “Ratio: KBV-1/KB-3-1” value is listed as 11,538. The “average ratio (IC50 KB-V1/IC50 KB-3-1)” value with KB-V1 (human, kb-v1 vs kb-3-1 cells) was 7,570.
On to 7-deoxy-7β,8β-methano-taxol, for which the “induction of tubulin polymerization in vitro” value with tubulin is “able to induce tubulin polymerization in vitro at 20 °C in a manner very similar to taxol”.
